Patent publication US7674813B2, “Heterocyclic sulfonamide inhibitors of beta amyloid production containing an azole” (Wyeth, priority 2004, dated 2010)

Tests used:
Assay type in all cases: cell-based
[1] = tested on: beta amyloid 40; experiment: Aβ40/42 ELISA Assay (Aβ40); details: Cricetulus griseus; CHO cells carrying the APP-REP-NL plasmid, 22 hours, sandwich ELISA
Protocol: (§1) Compounds are diluted from DMSO stocks to 2 μM and below in a cell culture medium. Compounds are then applied to CHO cells carrying the APP-REP-NL plasmid [Sudhir et. al, J. Biolog. Chem. 267:25602-25608 (1992)] for a period of 22 hours. After the conditioning period, medium is collected, diluted in assay buffer containing protein, and samples, controls, and synthetic peptide standards are incubated on a prepared ELISA plate. Using a sandwich ELISA with antibodies specifically directed against the carboxyl terminus of beta amyloid 40 or 42 (analogous to the method reported by Haugabook et al., J. Neurosci. Methods 108:171-179 (2001) but using goat anti-mouse IgG1 (source: Southern Biotech) as the anchor, 6E10 as the capture antibody (Source: SENETEK), rabbit antiAβ40 and antiAβ42 (source: QCB) and APL-donkey anti-rabbit IgG (H+L, source: Southern Biotech) as the detection antibody), the effect of the compound treatment on the cellular production of extracellular beta amyloid is quantified. Cells treated with compound are subsequently incubated in cell culture medium containing MTS-formazan. After a short incubation period, MTS/medium containing plates are read in a spectrophotometer to determine the extent to which compound toxicity affected the cell's metabolism and ability to synthesize beta amyloid.
(§2) A. Test Samples: compound samples are supplied as 20 mM stock solutions in a 100% DMSO solution.
(§3) B. APP-REP-NL cells: Qualified cell lines are carried from week to week using 1:100 dilutions and are cultured in DMEM supplemented with 1× antibiotic/antimycotic, 200 ug/ml of G418 antibiotic, and 10% certified fetal calf serum. Cells are also banked in liquid nitrogen. Periodically, beta amyloid production is assessed, and cells are either kept in culture or replaced with progenitors at full expression.
(§4) C. Antibodies: From certified lots that have already been qualified in this assay. Antibodies are stored in small frozen aliquots at −80° C. that are thawed and used.
(§5) A compound is considered active if it has an EC50 for Aβ40 reduction of <100 μM and no toxicity at doses in the vicinity of the EC50.

[2] = tested on: amyloid precursor protein (APP) proteolysis; experiment: Repressor Release Assay (RRA); details: Cricetulus griseus, CHO-K1, all compounds tested at 20 μg/mL; luciferase activity over diluent control; transfected CHO-K1 cells; read-out: RRA data (Fold increase of APPI)
Protocol: The beta amyloid inhibitory activity of many of the compounds of the present invention has been determined using the Repressor Release Assay (RRA). See, Table 3 below. A compound is considered active in RRA if it leads to at least a 1.5 fold increase in luciferase activity at 20 μg/mL and is non-toxic.
The compound is considered active in RRA if it leads to at least a 1.5 fold increase in APPI as measured by an increase in luciferase activity at 20 μg/mL and is non-toxic. Shuey, D. J., Sheiffele, P., Jones, D., Cockett, M. I., and Quinet, E. M. (1999) Repressor release: a useful tool for monitoring amyloid precursor protein (APP) proteolysis in mammalian cells. Society for Neuroscience Abstracts, Vol. 25, 29th Annual Meeting of Society for Neuroscience, Miami Beach, Fla., Oct. 23-28, 1999.
CHO—K1 cells are cultured in whole DMEM media (DMEM—High Glucose with 10% fetal bovine serum, 1% Non-essential Amino Acids, and 1% Penicillin-Streptomycin) at 37° C. with 5% CO2. Two million cells are plated into 10-cm dishes 24 hrs prior to transfection.
Transient transfections are completed as recommended by Gibco BRL using their Lipofectamine Plus system. First, 6 μg of pRSVO-luc and 6 μg of APP-lacI construct DNA are added to 460 μL Opti-Mem transfection media and incubated with 30 μL Plus reagent for 15 minutes. Then, a lipid mixture of 40 μL Lipofectamine reagent and 460 μL Opti-Mem transfection media is incubated with the DNA-Plus reagent mixture for 15 minutes. During the DNA-lipid incubation, the CHO—K1 cells are washed once and covered in 5.0 mL DMEM media without Penicillin-Streptomycin. The DNA-lipid preparation is then layered onto these cells and incubated at 37° C. overnight.
One and one half million transfected cells per well (100 μL total volume) are plated into sterile, opaque Packard 96-well Cultur-Plates in clear DMEM whole media (DMEM—without phenol red) and incubated at 37° C. with 5% CO2 for 3-5 hours.
Compounds are diluted using two different protocols; one protocol is used for compounds supplied neat (weighed powder in vial) and the other protocol is used for compounds supplied in solution (20 mM in DMSO in 96-well plates). For both protocols, 25 mM Hepes and 25 mM Hepes/1% DMSO are prepared fresh to be used as diluent. The Hepes/DMSO is used as the diluent control on all experimental plates.
The following Table 1 depicts the steps for compound dilution (the last step is the addition of compound to cells/media in tissue culture plate):
Because some compounds arrive in 96-well format at 20 mM, the following Table 2 represents the protocol for their dilution (an average molecular weight of these compounds was used to calculate these dilutions and as above, the last step is the addition of compound to cells/media in tissue culture plate):
Once compounds are diluted, they are applied in duplicate on cells in tissue culture plates (prepared above). Cells are incubated with compound at 37° C. with 5% CO2 for an additional 36-48 hours.
Luciferase assays (LucLite reagent, Packard) are performed and are read on a Packard TopCount instrument. Media is removed from each 96-well plate and replaced with 100 μL PBS per well (with Mg^2+ and Ca^2+). An equal volume (100 μL) of the LucLite lysis/substrate buffer is added to each well and the plates are sealed and mixed in the dark on a rotary shaker for 15-30 minutes at room temperature. Luciferase readings are then taken on the TopCount instrument. Measurements are expressed as relative light units (RLU) and are calculated and analyzed in MS Excel as follows:
Fold Increase: amount of luciferase activity (measured in relative light units) over diluent control.
SEM: standard error of the mean for fold increase.
Activity: A compound is considered active if it results in at least a 1.5 fold increase in luciferase activity at 20 μg/mL.
Toxicity: determined by loss of signal (<0.75 fold increase).

[3] = tested on: beta amyloid 42; experiment: Aβ40/42 ELISA Assay (Aβ42); details: CHO cells carrying the APP-REP-NL plasmid, 22 hours, sandwich ELISA; for EC50: Cricetulus griseus
Protocol: as §1, §2, §3, §4, §5

In the case of `CC(NS(=O)(=O)c1ccc(Cl)s1)c1ccnn1-c1ccccc1` (centres unmarked) [Example 13, 5-Chloro-N-[1-(1-phenyl-1H-pyrazol-5-yl)ethyl]thiophene-2-sulfonamide], the EC50 [1] is reported as 4.8 µM, the fold induction at 20 µg/mL [2] is reported as 6.4 and the EC50 [3] is reported as 5.1 µM.
For `CC(C)[C@@H](NS(=O)(=O)c1ccc(Cl)s1)c1ccnn1-c1ccc(F)cc1` (stereo in doubt) [Example 41, 5-Chloro-N-{(1R)-1-[1-(4-fluorophenyl)-1H-pyrazol-5-yl]-2-methylpropyl}thiophene-2-sulfonamide], the EC50 [1] was 21.9 µM and the “Effect on Aβ42 production” value [3] was “increase”.
`CCC(CC)C(NS(=O)(=O)c1ccc(Cl)s1)c1ncnn1Cc1ccc(F)cc1` (centres unmarked) [Example 19, 5-Chloro-N-{2-ethyl-1-[1-(4-fluorobenzyl)-1H-1,2,4-triazol-5-yl]butyl}thiophene-2-sulfonamide] was tested, and the fold induction at 20 µg/mL [2] was 3.9.
In the case of `COc1ccc(Cn2cccc2C(NS(=O)(=O)c2ccc(Cl)s2)C(C)C)cc1` (centres unmarked) [Example 32, 5-Chloro-N-{1-[1-(4-methoxybenzyl)-1H-pyrrol-2-yl]-2-methylpropyl}thiophene-2-sulfonamide], the EC50 [1] is reported as 13.3 µM, the fold induction at 20 µg/mL [2] is reported as 6.6 and the “Effect on Aβ42 production” value [3] is reported as “increase”.
In the case of `CCC(CC)C(NS(=O)(=O)c1ccc(Cl)s1)c1ccnn1-c1ccccc1` (centres unmarked) [Example 17, 5-Chloro-N-[2-ethyl-1-(1-phenyl-1H-pyrazol-5-yl)butyl]thiophene-2-sulfonamide], the EC50 [1] is reported as 4.2 µM and the EC50 [3] is reported as 10 µM.
In the case of `CCC(CC)C(NS(=O)(=O)c1ccc(Cl)s1)c1ccnn1-c1ccc(C(F)(F)F)cc1` (centres unmarked) [Example 18, 5-Chloro-N-(2-ethyl-1-{1-[4-(trifluoromethyl)phenyl]-1H-pyrazol-5-yl}butyl)thiophene-2-sulfonamide], the EC50 [1] is reported as 5.9 µM, the fold induction at 20 µg/mL [2] is reported as 2.3 and the EC50 [3] is reported as 10.7 µM.
`CCC(CC)C(NS(=O)(=O)c1ccc(Cl)s1)c1nccn1Cc1ccc(O)cc1` (centres unmarked) [Example 30, 5-Chloro-N-{2-ethyl-1-[1-(4-hydroxybenzyl)-1H-imidazol-2-yl]butyl}thiophene-2-sulfonamide] was tested, and the EC50 [1] was 5.2 µM, the fold induction at 20 µg/mL [2] was 8.6 and the EC50 [3] was 9.8 µM.
`COc1ccc(Cn2nccc2C(NS(=O)(=O)c2ccc(Cl)s2)C(C)C)cc1` (centres unmarked) [Example 5, 5-Chloro-N-{1-[1-(4-methoxybenzyl)-1H-pyrazol-5-yl]-2-methylpropyl}thiophene-2-sulfonamide] was tested, and the EC50 [1] was 1.1 µM, the fold induction at 20 µg/mL [2] was 3.5 and the EC50 [3] was 0.9 µM.
With `CCC(CC)C(NS(=O)(=O)c1ccc(Cl)s1)c1ccnn1-c1ccc(O)cc1` (centres unmarked) [Example 11, 5-Chloro-N-{2-ethyl-1-[1-(4-hydroxyphenyl)-1H-pyrazol-5-yl]butyl}thiophene-2-sulfonamide] the EC50 [1] was 1 µM, the fold induction at 20 µg/mL [2] was 3 and the EC50 [3] was 2.7 µM.
`CCC(CC)C(NS(=O)(=O)c1ccc(Br)cc1)c1ccnn1Cc1ccc(OC)cc1` (centres unmarked) [Example 3, 4-Bromo-N-{2-ethyl-1-[1-(4-methoxybenzyl)-1H-pyrazol-5-yl]butyl}benzenesulfonamide] gave an EC50 [1] of 6.8 µM, a fold induction at 20 µg/mL [2] of 5.9 and an EC50 [3] of 10 µM.
`CCC(CC)C(NS(=O)(=O)c1ccc(Cl)s1)c1ccnn1-c1ccc(OC)cc1` (centres unmarked) [Example 10, 5-Chloro-N-{2-ethyl-1-[1-(4-methoxyphenyl)-1H-pyrazol-5-yl]butyl}thiophene-2-sulfonamide] gave an EC50 [1] of 4 µM, a fold induction at 20 µg/mL [2] of 1.7 and an EC50 [3] of 10.1 µM.
For `CCCCn1nccc1C(NS(=O)(=O)c1ccc(Cl)s1)C(CC)CC` (centres unmarked) [Example 7, N-[1-(1-Butyl-1H-pyrazol-5-yl)-2-ethylbutyl]-5-chlorothiophene-2-sulfonamide], the EC50 [1] was 2.4 µM, the fold induction at 20 µg/mL [2] was 5.4 and the EC50 [3] was 2.7 µM.
Compound `CCC(CC)C(NS(=O)(=O)c1ccc(Cl)cc1)c1ccnn1Cc1ccc(OC)cc1` (centres unmarked) [Example 2, 4-Chloro-N-{2-ethyl-1-[1-(4-methoxybenzyl)-1H-pyrazol-5-yl]butyl}benzenesulfonamide] has an EC50 [1] of 6.4 µM, a fold induction at 20 µg/mL [2] of 11.3 and an EC50 [3] of 13 µM.
`O=S(=O)(NC(Cc1ccccc1)c1ccnn1-c1ccc(F)cc1)c1ccc(Cl)s1` (centres unmarked) [Example 35, 5-Chloro-N-{1-[1-(4-fluorophenyl)-1H-pyrazol-5-yl]-2-phenylethyl}thiophene-2-sulfonamide] gave an EC50 [1] of 12.8 µM and an EC50 [3] of 67.2 µM.
`Cc1ccc(-n2nccc2C(NS(=O)(=O)c2ccc(Cl)s2)C(C)C)cc1` (centres unmarked) [Example 14, 5-Chloro-N-{2-methyl-1-[1-(4-methylphenyl)-1H-pyrazol-5-yl]propyl}thiophene-2-sulfonamide] showed an EC50 [1] of 1.2 µM, a fold induction at 20 µg/mL [2] of 17.7 and an EC50 [3] of 1.2 µM.
`Cc1cccc(-n2nccc2C(NS(=O)(=O)c2ccc(Cl)s2)C(C)C)c1` (centres unmarked) [Example 16, 5-Chloro-N-{2-methyl-1-[1-(3-methylphenyl)-1H-pyrazol-5-yl]propyl}thiophene-2-sulfonamide] gave an EC50 [1] of 3.5 µM, a fold induction at 20 µg/mL [2] of 4 and an EC50 [3] of 4.4 µM.
For `CC(C)[C@H](NS(=O)(=O)c1ccc(Cl)s1)c1ccnn1-c1ccc(F)cc1` (stereo in doubt) [Example 42, 5-Chloro-N-{(1S)-1-[1-(4-fluorophenyl)-1H-pyrazol-5-yl]-2-methylpropyl}thiophene-2-sulfonamide], the EC50 [1] was 1 µM and the EC50 [3] was 1 µM.
With `CCC(CC)C(NS(=O)(=O)c1ccc(Cl)s1)c1nccn1Cc1ccccc1` (centres unmarked) [Example 28, N-[1-(1-Benzyl-1H-imidazol-2-yl)-2-ethylbutyl]-5-chlorothiophene-2-sulfonamide] the EC50 [1] was 19.4 µM and the fold induction at 20 µg/mL [2] was 1.5.
